# In patent EP4810493A1, “HETEROCYCLIC CARBONYL DERIVATIVE MODULATOR, PREPARATION METHOD THEREFOR, AND USE THEREOF” (Shanghai Hansoh Biomedical Co., Ltd., priority 2023, dated 2025):
# Test system: not listed separately
# Test: Pharmacokinetic determination in SD rats
# Details: rat, in vivo, po; male SD rats, p.o. 5 mg/kg
# Protocol: To investigate the pharmacokinetic behaviours of the example compounds in both plasma and brain of SD rats (test animals) following oral administration at a dose of 5 mg/kg.
# 2.1 Test drugs: The example compounds of the present invention, made in house.
# 2.2 Test animals: SD Rat, male.
# 24 SD Rats, male; p.o. respectively at a dose of 5 mg/kg and an administration volume of 10 mL/kg after the rats were fasted overnight.
# Formulation of a drug for oral administration: 0.5% CMC-Na (1% Tween 80).
# 0.50 g of sodium carboxymethyl cellulose (CMC-Na, viscosity: 800-1200 Cps) was weighed and dissolved in 99 mL of purified water, and 1 ml of Tween 80 was added. The components were mixed thoroughly under stirring to form a clear solution.
# The example compound was weighed into a 100 mL glass vial, 80 mL of the solution was added, and the mixture was subjected to ultrasound treatment for 10 minutes to obtain a homogeneous suspension with a concentration of 0.5 mg/mL.
# After the test animals were euthanised by CO2, blood samples were collected from the heart and brain tissues were harvested at 0.25 h, 0.5 h, 1 h, 2 h, 4 h, 6 h, 8 h, and 24 h post-dose. Blood was placed in EDTA-2K tubes, and centrifuged at 6000 rpm for 6 min at 4°C to separate the plasma. Brain tissues were rinsed with pre-cold PBS, blotted dry, and weighed. Both plasma and brain samples were stored at -80°C. The animals were fed 4 h after administration.
# • 3) 40 uL of plasma sample was precipitated with 160 uL of acetonitrile, mixed, and centrifuged at 3500 × g for 5-20 min. Brain tissues were diluted, homogenised and centrifuged. • 4) 100 uL of the treated supernatant solution was taken for LC/MS/MS analysis to determine the concentration of the test compounds.
# • Liquid phase conditions: Shimadzu LC-20AD pump • Mass spectrometry conditions: AB Sciex API 4000 mass spectrometer • Chromatographic column: Phenomenex Gemiu 5 um C18 50 × 4.6 mm • Mobile phase: solution A: 0.1% formic acid in water, solution B: acetonitrile • Flow rate: 0.8 mL/min • Elution time: 0-4.0 min, with eluents as follows:
# The main pharmacokinetic parameters were calculated using WinNonlin 8.1.
Compound,AUC(0-inf) [ng·h/mL],Cmax [ng/mL],Tmax [h]
Cc1cc2ncnn2c2c1CN(C(=O)CC1CN(c3ncc(C(F)(F)F)cn3)C1)C2 [Example 331],10700,944,2

# Same assay, conditions: rat, in vivo, po; male SD rats, p.o. 5 mg/kg; read-out: MRT 0-∞
row,Compound,MRT inf [h]
1,Cc1cc2ncnn2c2c1CN(C(=O)CC1CN(c3ncc(C(F)(F)F)cn3)C1)C2 [Example 331],6.8

# Target: T1, M4 receptor (Homo sapiens, UniProt P08173)
# T1 construct: expressed in transfected cells
# T1 sequence (P08173 1-479): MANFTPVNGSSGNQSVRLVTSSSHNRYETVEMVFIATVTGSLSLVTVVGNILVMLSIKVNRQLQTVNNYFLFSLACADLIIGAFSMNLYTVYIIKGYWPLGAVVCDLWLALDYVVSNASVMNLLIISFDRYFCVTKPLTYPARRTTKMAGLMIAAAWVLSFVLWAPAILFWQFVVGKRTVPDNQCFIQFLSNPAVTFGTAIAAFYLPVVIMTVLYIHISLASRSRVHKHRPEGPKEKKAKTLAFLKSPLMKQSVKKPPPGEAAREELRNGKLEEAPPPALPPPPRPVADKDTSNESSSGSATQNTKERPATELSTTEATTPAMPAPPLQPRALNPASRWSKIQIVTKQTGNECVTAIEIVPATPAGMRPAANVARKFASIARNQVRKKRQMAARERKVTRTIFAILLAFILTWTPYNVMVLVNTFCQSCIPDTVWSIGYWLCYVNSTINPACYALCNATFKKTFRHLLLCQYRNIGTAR
# Test: Calcium flux (FLIPR) potentiation assay in cells stably expressing M4 receptor
# Format: cell-based
# Details: not given
# Excerpt: Test example 1. Determination of the effect of the compounds of the present invention on calcium current in cells stably expressing M1-M5 receptors
# To detect the potentiating effect of compounds on calcium flux activity in CHO-K1/human M1/3/5 and CHO-K1/Gα15 M2/4 cells.
# 384-well assay plate, 384-well plate, FLIPR Tip, FLIPR Penta plate reader, Dispendix non-contact nanoliter dispensing system (liquid handling workstation), liquid handler.
# Ham's F-12 Nutrient Mix, foetal bovine serum, P/S (Gibco: 15140122), HBSS (Gibco: 14025076), HEPES (Gibco: 15630080), FLIPR calcium 6 assay kit (Molecular Devices: R8190), Probenecid (PBA) (Invitrogen: P36400), Acetylcholine chloride (Sigma: A6625-25G) Complete culture medium: DMEM + 10% FBS + 1X P/S; Cell seeding medium: DMEM + 10% FBS + 1X PS; Assay buffer 1: 1X HBSS + 20 mM HEPES +2.5 mM Probenecid; Assay buffer 2: 1X HBSS + 20 mM HEPES; Cell line: CHO-K1/M1; CHO-K1/M2/Gα15; CHO-K1/M3; CHO-K1/M4/Gα15; CHO-K1/M5.
# FLIPR calcium 6 assay kit: Component A was dissolved in Assay buffer 1, and the mixture was shaken for 1-2 min, sub-packaged and stored at -20°C.
# • 1) CHO-K1/M1; CHO-K1/M2/Gα15; CHO-K1/M3; CHO-K1/M4/Gα15; and CHO-K1/M5 cell lines were cultured separately in complete culture medium at 37°C, 5% CO2 to 70%-90% confluency. • 2) The cells were digested and resuspended in cell seeding medium, 5,000 cells/well/20 µL were seeded into a 384-well cell culture plate, and the cells were cultured at 37°C, 5% CO2 for 24 hours. • 3) The cell culture plate was taken out of the CO2 incubator and equilibrated at room temperature for 10 minutes. • 4) Component A solution was removed and allowed to equilibrate to room temperature. 20 µL of Component A solution was added to each well of the cell culture plate, and incubated at room temperature in the dark for 1 hour. • 5) Acetylcholine chloride (ACh), a muscarinic receptor agonist, was prepared in Assay buffer 2 at EC20/EC100 concentrations; subsequently, 30 µL of the prepared muscarinic receptor agonist was added to a 384-well agonist plate (PE: 6008590) using a Multidrop Combi; the working solutions of the positive control compound and the test compound were serially diluted at a 3.16-fold gradient and dispensed (450 nL) into a 384-well compound plate (PE: 6008590) using the Dispendix liquid handling workstation; 30 µL of Assay buffer 2 was added to the 384-well compound plate (PE: 6008590) using the Multidrop Combi; the positive control compound and the test compound were diluted to 6X, mixed by shaking, and placed at room temperature until use. • 6) 10 µL of the diluted 6X compound was added to the assay wells of the corresponding 384-well cell plate using the FLIPR Penta, followed by a 2-minute incubation. • 7) 10 µL of the prepared muscarinic receptor agonist was added to the assay wells of the corresponding 384-well cell plate using the FLIPR Penta, with simultaneous data acquisition.
# FLIPR Penta was used to read and collect the fluorescence signal value (RFU). The maximum RFU value was used to calculate the percent activation data based on the readings of the Low control (DMSO control group) and High control (ACh EC100) experimental groups {% activation rate = (RFUsample - RFUlow control) / (RFUhigh control - RFUlow control)×100}. The test compound was diluted 3.16X in the reaction system to generate 11 concentration points ranging from 30 µM to […].
row,Compound,EC50 [nM]
1,Cc1cc2ncnn2c2c1CN(C(=O)CC1CN(c3ncc(C(F)(F)F)cn3)C1)C2 [Example 331],101
2,Cc1c2c(c3ncnn3c1C)CN(C(=O)CC1CN(c3ccc4c(ccn4C)c3)C1)C2 [Example 309],28.1
3,Cc1c2c(c3ncnn3c1C)CN(C(=O)CC1CN(c3ncc(F)cc3F)C1)C2 [Example 301],12.4

# Same assay, conditions: CHO-K1/M4/Gα15 cells; potentiation of acetylcholine (EC20) calcium flux; read-out: M4 FLIPR EC50
row,Compound,EC50 [nM]
1,Cc1nc2c3c(c(C)c(C)n2n1)CN(C(=O)CC1CN(c2ccnc(C(F)(F)F)c2)C1)C3 [Example 57],18
2,Cc1cn2nc(N3CC(CC(=O)N4Cc5c(C)c(C)n6nc(C)nc6c5C4)C3)ccc2n1 [Example 127],15.2
3,Cc1c2c(c3nccn3c1C)CN(C(=O)CC1CN(c3ccnc(C(F)F)c3)C1)C2 [Example 101],33.5
4,Cc1c2c(c3ccnn3c1C)CN(C(=O)CC1CN(c3ccnc(OC4CC4)c3)C1)C2 [Example 221],94.3
5,Cc1c2c(c3nnnn3c1C)CN(C(=O)OC1CN(c3ccnc(OC(F)F)c3)C1)C2 [Example 179],57.1
6,Cc1c2c(c3ncnn3c1C)CN(C(=O)CC1CN(c3ccnc(S(=O)(=O)N(C)C)c3)C1)C2 [Example 61],10.6
7,Cc1cn2nc(N3CC(OC(=O)N4Cc5c(C)c(C)n6nccc6c5C4)C3)ccc2n1 [Example 200],39.4
8,Cc1c2c(c3ncnn3c1C)CN(C(=O)CC1CN(c3ccc(OC4CC4)nc3)C1)C2 [Example 303],13.8
9,"Cc1c2c(c3ncnn3c1C)CN(C(=O)C[C@@H]1C[C@H]1c1ccc(F)nc1)C2 [Example 103, 1-(5,6-Dimethyl-7,9-dihydro-8H-pyrrolo[3,4-c][1,2,4]triazolo[1,5-a]pyridin-8-yl)-2-((1S,2R)-2-(6-fluoropyridin-3-yl)cyclopropyl)ethan-1-one]",24.4
10,Cc1c2c(c3ncnn3c1C)CN(C(=O)OC1CN(c3ccc4nc(CF)cn4n3)C1)C2 [Example 190],73.2
11,Cc1c2c(c3nc(N)nn3c1C)CN(C(=O)CC1CN(c3ccnc(C(F)(F)F)c3)C1)C2 [Example 145],27.4
12,Cc1c2c(c3ccnn3c1C)CN(C(=O)CC1CN(c3ccnc(C(F)F)c3)C1)C2 [Example 208],42.6
13,CN=S(C)(=O)c1ccc(N2CC(CC(=O)N3Cc4c(C)c(C)n5ncnc5c4C3)C2)cc1 (stereo not shown) [Example 38],37.9
14,CCNc1nccc(N2CC(CC(=O)N3Cc4c(C)c(C)n5ncnc5c4C3)C2)n1 [Example 53],8
15,"Cc1c2c(c3nccn3c1C)CN(C(=O)CC1CN(c3ccnc(C(F)(F)F)c3)C1)C2 [Example 60, 1-(5,6-Dimethyl-7,9-dihydro-8H-imidazo[1,2-a]pyrrolo[3,4-c]pyridin-8-yl)-2-(1-(2-(trifluoromethyl)pyridin-4-yl)azetidin-3-yl)ethan-1-one]",8.8
16,"Cc1c2c(c3ncnn3c1C)CN(C(=O)CC1CN(c3ccnc(C(F)(F)F)c3)C1)C2 [Example 20, 1-(5,6-Dimethyl-7,9-dihydro-8H-pyrrolo[3,4-c][1,2,4]triazolo[1,5-a]pyridin-8-yl)-2-(1-(2-(trifluoromethyl)pyridin-4-yl)azetidin-3-yl)ethan-1-one]",14.7
17,Cc1c2c(c3ncnn3c1C)CN(C(=O)CC1CN(c3ccnc(OCC(F)F)c3)C1)C2 [Example 185],11.1
18,Cc1cn2nc(N3CC(CC(=O)N4Cc5c(C)c(C)n6nccc6c5C4)C3)ccc2n1 [Example 201],56.4
19,Cc1c2c(c3ncnn3c1C)CN(C(=O)CC1CN(c3ccc(S(=O)(=O)C(F)F)cc3)C1)C2 [Example 25],9.5
20,[2H]C([2H])([2H])Oc1cc(N2CC(OC(=O)N3Cc4c(C)c(C)n5ncnc5c4C3)C2)ccn1 [Example 247],96.3
21,Cc1c2c(c3ncnn3c1C)CN(C(=O)CC1CN(c3cc(C(F)(F)F)ncc3Cl)C1)C2 [Example 204],33
22,Cc1c2c(c3ncnn3c1C)CN(C(=O)C1CCN(c3ccncn3)C1)C2 (stereo not shown) [Example 34],40.4
23,CCOc1cc(N2CC(OC(=O)N3Cc4c(C)c(C)n5ncnc5c4C3)C2)ccn1 [Example 238],35.1
24,Cc1c2c(c3ncnn3c1C)CN(C(=O)OC1CN(c3cc(C(F)(F)F)ncc3Cl)C1)C2 [Example 180],69.5
25,Cc1c2c(c3ncnn3c1C)CN(C(=O)CC1CN(c3ncc(F)cn3)C1)C2 [Example 300],35.7
26,Cc1c2c(c3ncnn3c1C)CN(C(=O)OC1CN(c3cc(C(F)F)ncc3Cl)C1)C2 [Example 184],44.1
27,CCOc1cc(N2CC(CC(=O)N3Cc4c(C)c(C)n5ncnc5c4C3)C2)ccn1 [Example 235],35.3
28,Cc1c2c(c3ncnn3c1C)CN(C(=O)CC1CN(c3cc(NC(C)C)ncn3)C1)C2 [Example 54],9.6
29,Cc1c2c(c3ncnn3c1C)CN(C(=O)CC1CN(c3ccnc(C4CCCCO4)c3)C1)C2 (stereo not shown) [Example 100],18.4
30,"COc1c(C)c2c(n3ncnc13)CN(C(=O)CC1CN(c3ccnc(C(F)(F)F)c3)C1)C2 [Example 292, 1-(4-Methoxy-5-methyl-7,8-dihydro-6H-[1,2,4]triazolo[5,1-f]pyrrolo[4,3-b]pyridin-7-yl)-2-{1-[2-(trifluoromethyl)pyridin-4-yl]azetidin-3-yl}ethan-1-one]",53.5
